# Assays:
# [1] = pH of the preserved slurry or coolant; format: physicochemical
# [2] = cited from earlier work
# [3] = Brookfield viscosity of the preserved pigment slurry; format: physicochemical
# Procedure: Measurement of the viscosity was performed on a Brookfield viscosimeter type PVF-100 at 100 rpm. The following spindles were used for the individual measurements:
# The measurement was carried out in a low 400 ml beaker.
# The temperature during the measurement was 20° C. The measurement was performed after 1 min of stirring.
# Prior to the actual measurements, all samples were stirred intensively for 2 min (5000 rpm, stirring disc diameter 50 mm).
# This type of viscosity measurement was used in all of the following examples.
# aerobic mesophilic germs = assay: Germ count (determination of aerobic mesophilic germs) in preserved slurry or coolant; format: cell-based, pseudomonads (predominantly Pesudomonas aeruginosa)
# Procedure: The germ count was determined according to the method “Determination of aerobic mesophilic germs”, Schweizerisches Lebensmittelbuch, chapter 56, paragraph 7.01, 1985 edition, revised version 1988. Mostly, the bacterial strains detected were from the family of pseudomonads (predominantly Pesudomonas aeruginosa).
# [4] = Solubility / miscibility in water and attainable concentration; format: physicochemical; details: NaOH as neutralizing agent, room temperature; higher concentrations impossible or recrystallized during storage
smiles,measurement,setting,value
Oc1ccccc1-c1ccccc1 [o-phenylphenol],pH of coolant,"[1]; 5% oil in water coolant emulsion, 2 kg actives/t, added as 50% solution (Example 13), blank 6.9",7.0
same,pH of slurry,"[1]; calcium carbonate slurry 77.8% solids, 250 g actives/t, added according to example 8, 47.5% solution (Example 11), blank 9.6",9.5
same,pH of slurry,"[1]; calcium carbonate slurry 77.8% solids, 250 g actives/t, added as solution of example 2 (Example 4, prior art), blank 9.6",10.2
same,pH of slurry,"[1]; kaolin slurry 72.8% solids, 300 g actives/t, added as solution of example 1 (Example 3, prior art), blank 7.4",8.1
same,pH of slurry,"[1]; kaolin slurry 72.8% solids, 300 g actives/t, added as solution of example 7 (Example 10), blank 7.4",7.4
same,pH of slurry,"[1]; talc slurry 64.2% solids, 350 g actives/t, added as 30% solution of example 9 (Example 12), blank 10.1",10.2
same,solubility in water,[2],almost insoluble in water
same,water miscibility,[2]; o-phenylphenol in monopropylene glycol,not water miscible
same,"Brookfield viscosity spindle 3, 100 rpm after preparation","[3]; calcium carbonate slurry 77.8% solids, 250 g actives/t, added according to example 8, 47.5% solution (Example 11), blank 340",350 mPas
same,"Brookfield viscosity spindle 3, 100 rpm after 1 week","[3]; calcium carbonate slurry 77.8% solids, 250 g actives/t, added according to example 8, 47.5% solution (Example 11), blank 350",380 mPas
same,"Brookfield viscosity spindle 3, 100 rpm after preparation","[3]; calcium carbonate slurry 77.8% solids, 250 g actives/t, added as solution of example 2 (Example 4), blank 340",320 mPas
same,"Brookfield viscosity spindle 3, 100 rpm after 1 week","[3]; calcium carbonate slurry 77.8% solids, 250 g actives/t, added as solution of example 2 (Example 4), blank 350",460 mPas
same,"Brookfield viscosity spindle 3, 100 rpm after preparation","[3]; kaolin slurry 72.8% solids, 300 g actives/t, added as solution of example 1 (Example 3), blank 240",310 mPas
same,"Brookfield viscosity spindle 3, 100 rpm after 1 week","[3]; kaolin slurry 72.8% solids, 300 g actives/t, added as solution of example 1 (Example 3), blank 330",760 mPas
same,"Brookfield viscosity spindle 3, 100 rpm after preparation","[3]; kaolin slurry 72.8% solids, 300 g actives/t, added as solution of example 7 (Example 10), blank 240",250 mPas
same,"Brookfield viscosity spindle 3, 100 rpm after 1 week","[3]; kaolin slurry 72.8% solids, 300 g actives/t, added as solution of example 7 (Example 10), blank 330",350 mPas
same,"Brookfield viscosity spindle 3, 100 rpm after preparation","[3]; talc slurry 64.2% solids, 350 g actives/t, added as 30% solution of example 9 (Example 12), blank 320",320 mPas
same,"Brookfield viscosity spindle 3, 100 rpm after 1 week","[3]; talc slurry 64.2% solids, 350 g actives/t, added as 30% solution of example 9 (Example 12), blank 480",540 mPas
same,germ count after 24 hrs,"aerobic mesophilic germs; 5% oil in water coolant emulsion, 2 kg actives/t, added as 50% solution (Example 13), blank 10^7/g",< 100 g⁻¹
same,germ count after 24 hrs,"aerobic mesophilic germs; calcium carbonate slurry, 250 g actives/t, added according to example 8, 47.5% solution (Example 11), blank 10^6/g",< 100 g⁻¹
same,germ count after 24 hrs,"aerobic mesophilic germs; calcium carbonate slurry, 250 g actives/t, added as solution of example 2 (Example 4), blank 10^5/g",< 100 g⁻¹
same,germ count after 24 hrs,"aerobic mesophilic germs; kaolin slurry, 300 g actives/t, added as solution of example 1 (Example 3), blank 10^5/g",< 100 g⁻¹
same,germ count after 24 hrs,"aerobic mesophilic germs; kaolin slurry, 300 g actives/t, added as solution of example 7 (Example 10), blank 10^5/g",< 100 g⁻¹
same,germ count after 24 hrs,"aerobic mesophilic germs; talc slurry, 350 g actives/t, added as 30% solution of example 9 (Example 12), blank 10^5/g",< 100 g⁻¹
same,attainable concentration of o-phenylphenol solution,[4],≤ 20 % by wt.

# From US6569229B1, “Low-freezing point formulation containing phenol derivatives” (Omya AG, priority 1998, dated 2003)
